Measured values as given in ChEMBL document CHEMBL4043145, “Pyridine-pyrimidine amides that prevent HGF-induced epithelial scattering by two distinct mechanisms” (Bioorg Med Chem Lett, 2017).

Assays:
MFE-280 [1] = experiment: Cell cycle arrest in human MFE280 cells assessed as accumulation at S phase at 100 nM (reference value: 14.14 to 15.66%); assay type: functional
A2780 [2] = experiment: Cell cycle arrest in human A2780 cells assessed as accumulation at S phase at 1000 nM (reference value: 21.16 to 22.81%); assay type: functional
A2780 [3] = experiment: Cell cycle arrest in human A2780 cells assessed as accumulation at G2/M phase at 100 nM (reference value: 19.42 to 20.43%); assay type: functional
MCF7 [4] = experiment: Cell cycle arrest in human MCF7 cells assessed as accumulation at S phase at 100 nM (reference value: 25.36 to 26.82%); assay type: functional
T47D [5] = experiment: Cell cycle arrest in human T47D cells assessed as accumulation at G2/M phase at 100 nM (reference value: 20.58 to 28.8%); assay type: functional
MFE-280 [6] = experiment: Induction of apoptosis in human MFE280 cells assessed as early apoptotic cells at 1000 nM by 7-AAD/Annexin staining-based assay (reference value: 5.1 to 6.2%); assay type: functional
MFE-280 [7] = experiment: Induction of apoptosis in human MFE280 cells assessed as early apoptotic cells at 100 nM by 7-AAD/Annexin staining-based assay (reference value: 5.1 to 6.2%); assay type: functional
MCF7 [8] = experiment: Induction of apoptosis in human MCF7 cells assessed as late apoptotic cells at 1000 nM by 7-AAD/Annexin staining-based assay (reference value: 1 to 2.1%); assay type: functional
MFE-280 [9] = experiment: Induction of apoptosis in human MFE280 cells assessed as late apoptotic cells at 100 nM by 7-AAD/Annexin staining-based assay (reference value: 6 to 7.4%); assay type: functional
MFE-280 [10] = experiment: Cell cycle arrest in human MFE280 cells assessed as accumulation at S phase at 1000 nM (reference value: 14.14 to 15.66%); assay type: functional
MCF7 [11] = experiment: Cell cycle arrest in human MCF7 cells assessed as accumulation at S phase at 1000 nM (reference value: 25.36 to 26.82%); assay type: functional
MCF7 [12] = experiment: Cell cycle arrest in human MCF7 cells assessed as accumulation at G1 phase at 1000 nM (reference value: 47.47 to 52.3%); assay type: functional
MFE-280 [13] = experiment: Cell cycle arrest in human MFE280 cells assessed as accumulation at G1 phase at 100 nM (reference value: 64.99 to 67.86%); assay type: functional
MFE-296 [14] = experiment: Cell cycle arrest in human MFE296 cells assessed as accumulation at S phase at 1000 nM (reference value: 16.96 to 19.19%); assay type: functional
T47D [15] = experiment: Cell cycle arrest in human T47D cells assessed as accumulation at S phase at 300 nM (reference value: 19.89 to 24.55%); assay type: functional
MCF7 [16] = experiment: Antiproliferative activity against human MCF7 cells at 10 uM relative to control; assay type: functional, cell-based
MFE-280 [17] = experiment: Cell cycle arrest in human MFE280 cells assessed as accumulation at G1 phase at 1000 nM (reference value: 64.99 to 67.86%); assay type: functional
MCF7 [18] = experiment: Cell cycle arrest in human MCF7 cells assessed as accumulation at S phase at 300 nM (reference value: 25.36 to 26.82%); assay type: functional
PC-3 [19] = experiment: Cell cycle arrest in human p53-null PC3 cells assessed as accumulation at G1 phase at 300 nM (reference value: 50.77 to 51.16%); assay type: functional
PC-3 [20] = experiment: Cell cycle arrest in human p53-null PC3 cells assessed as accumulation at G1 phase at 1000 nM (reference value: 50.77 to 51.16%); assay type: functional
A2780 [21] = experiment: Cell cycle arrest in human A2780 cells assessed as accumulation at G1 phase at 100 nM (reference value: 55.26 to 55.66%); assay type: functional
MFE-296 [22] = experiment: Cell cycle arrest in human MFE296 cells assessed as accumulation at G1 phase at 300 nM (reference value: 61.05 to 64.87%); assay type: functional
MCF7 [23] = experiment: Cell cycle arrest in human MCF7 cells assessed as accumulation at G2/M phase at 1000 nM (reference value: 20.06 to 22.33%); assay type: functional
MFE-280 [24] = experiment: Cell cycle arrest in human MFE280 cells assessed as accumulation at G2/M phase at 300 nM (reference value: 16.43 to 17.9%); assay type: functional
PC-3 [25] = experiment: Cell cycle arrest in human p53-null PC3 cells assessed as accumulation at S phase at 300 nM (reference value: 29.08 to 29.33%); assay type: functional
A2780 [26] = experiment: Cell cycle arrest in human A2780 cells assessed as accumulation at S phase at 100 nM (reference value: 21.16 to 22.81%); assay type: functional
T47D [27] = experiment: Cell cycle arrest in human T47D cells assessed as accumulation at G1 phase at 300 nM (reference value: 45.5 to 57.8%); assay type: functional
MFE-280 [28] = experiment: Induction of apoptosis in human MFE280 cells assessed as late apoptotic cells at 1000 nM by 7-AAD/Annexin staining-based assay (reference value: 6 to 7.4%); assay type: functional
MFE-280 [29] = experiment: Cell cycle arrest in human MFE280 cells assessed as accumulation at G2/M phase at 100 nM (reference value: 16.43 to 17.9%); assay type: functional
A2780 [30] = experiment: Cell cycle arrest in human A2780 cells assessed as accumulation at G1 phase at 300 nM (reference value: 55.26 to 55.66%); assay type: functional
A2780 [31] = experiment: Cell cycle arrest in human A2780 cells assessed as accumulation at G2/M phase at 300 nM (reference value: 19.42 to 20.43%); assay type: functional
PC-3 [32] = experiment: Cell cycle arrest in human p53-null PC3 cells assessed as accumulation at S phase at 100 nM (reference value: 29.08 to 29.33%); assay type: functional
PC-3 [33] = experiment: Cell cycle arrest in human p53-null PC3 cells assessed as accumulation at G2/M phase at 100 nM (reference value: 18.37 to 18.96%); assay type: functional
MFE-280 [34] = experiment: Cell cycle arrest in human MFE280 cells assessed as accumulation at G2/M phase at 1000 nM (reference value: 16.43 to 17.9%); assay type: functional
T47D [35] = experiment: Cell cycle arrest in human T47D cells assessed as accumulation at S phase at 1000 nM (reference value: 19.89 to 24.55%); assay type: functional
T47D [36] = experiment: Cell cycle arrest in human T47D cells assessed as accumulation at G2/M phase at 1000 nM (reference value: 20.58 to 28.8%); assay type: functional
T47D [37] = experiment: Cell cycle arrest in human T47D cells assessed as accumulation at G1 phase at 100 nM (reference value: 45.5 to 57.8%); assay type: functional
MCF7 [38] = experiment: Cell cycle arrest in human MCF7 cells assessed as accumulation at G2/M phase at 100 nM (reference value: 20.06 to 22.33%); assay type: functional
MFE-280 [39] = experiment: Cell cycle arrest in human MFE280 cells assessed as accumulation at G1 phase at 300 nM (reference value: 64.99 to 67.86%); assay type: functional

SMILES: O=C(Nc1ccc(-c2cccc(Cl)c2)cn1)c1cncnc1
- Activity (MFE-280 [1]): 18.71%
- Activity (A2780 [2]): 7.1%
- Activity (A2780 [3]): 20.89%
- Activity (MCF7 [4]): 19.1%
- Activity (T47D [5]): 19.68%
- Activity (MFE-280 [6]): 5.9%
- Activity (MFE-280 [7]): 4.9%
- Activity (MCF7 [8]): 2.4%
- Activity (MFE-280 [9]): 8.3%
- Activity (MFE-280 [10]): 18.57%
- Activity (MCF7 [11]): 16.61%
- Activity (MCF7 [12]): 8.04%
- Activity (MFE-280 [13]): 61.48%
- Activity (MFE-296 [14]): 18.15%
- Activity (T47D [15]): 27.41%
- EC50 (MCF7 [16]): 29 nM
- Activity (MFE-280 [17]): 34.18%
- Activity (MCF7 [18]): 23.22%
- Activity (PC-3 [19]): 14.74%
- Activity (PC-3 [20]): 5.07%
- Activity (A2780 [21]): 58.01%
- Activity (MFE-296 [22]): 13.78%
- Activity (MCF7 [23]): 63.38%
- Activity (MFE-280 [24]): 37.86%
- Activity (PC-3 [25]): 22.85%
- Activity (A2780 [26]): 18.92%
- Activity (T47D [27]): 42.55%
- Activity (MFE-280 [28]): 8.4%
- Activity (MFE-280 [29]): 18.95%
- Activity (A2780 [30]): 24.74%
- Activity (A2780 [31]): 30.36%
- Activity (PC-3 [32]): 22.12%
- Activity (PC-3 [33]): 25.26%
- Activity (MFE-280 [34]): 46.61%
- Activity (T47D [35]): 21.38%
- Activity (T47D [36]): 43.07%
- Activity (T47D [37]): 54.23%
- Activity (MCF7 [38]): 26.95%
- Activity (MFE-280 [39]): 39.17%
